In patent publication US11517575B2, “Use of minaprine to reduce tumor growth” (Institut Gustave-Roussy, priority 2019, dated 2022):

Columns and labels:
HCT116 cells = assay: Screening of chemical libraries for IR-mediated cellular cannibalism (imaging flow cytometry, confocal validation); assay type: cell-based, human; settings: for enhancement of IR-mediated cellular cannibalism: 8 Gy irradiated HCT116 cells, 10 μM compound, 24 h culture, dihydrochloride
Experimental: FIG. 4 Identification of cannibalism modulators triggered by ionizing radiation. Compounds from the Prestwick (A) and CEA (F) libraries were tested for their capacities to induce cellular cannibalism after ionizing radiation. Cannibal cells were detected after homotypic cultures of 8 gray γ-irradiation HCT116 cells in the presence or absence of 10 μM of the Prestwick (A) and CEA […] library compounds. Each dot represents one compound. Representative images are shown in (B, G). (C, H) HCT116 cells were treated with the indicated drugs. After 24 h of treatment, cell death was monitored by staining with 3,3 dihexyloxacarbocyanine iodide (DiOC6(3)) and PI^+, and the percentage of dying (DiOC6(3)^low PI^−, open bars) and dead (DiOC6(3)^low PI^+, closed bars) cells was determined by cytofluorometry. Validation of the cannibalism inducers by fluorescent microscopy. Representative images (D, I) and quantification (E, J) are shown. Results are means s.e.m. of triplicate determinations.
Untreated HCT116 cells were labeled with CMFDA (green fluorescence, CMFDA^+) or CMTMR, (red fluorescence, CMTMR) and treated HCT116 cells with CMFDA (green fluorescence, CMFDA^+). The following cell mixtures were performed: untreated CMTMR^+ HCT116 cells were mixed with untreated CMFDA^+ HCT116 cells, or untreated CMTMR^+ HCT116 cells were mixed with treated CMFDA^+ HCT116 cells. Then, cells were co-cultured during 24 hours in the presence or absence of the pharmacological inhibitor of ROCK, Y27632 (30 μM), the pan-caspase inhibitor, Z-VAD-fmk (ZVAD, 100 μM), the inhibitor of caspase-1, Ac-YVAD-cmk (YVAD, 100 μM), the necroptosis inhibitor, Necrostatin-1 (NEC1, 30 μM), the inhibitor of the vacuolar type H(+)-ATPase (V-ATPase) inhibiting autophagy, Bafilomycin A1 (BafA1, 50 nM), the inhibitor of Cdks with an anti-mitotic activity, Roscovitine (Rosco, 10 μM). After 24 hours of co-culture, both detached and adherent cells were collected and stained with Hoechst […] (10 μg/mL) during 1 hour at 37° C. in warmed complete medium. To detect phosphatidylserine (PS) exposure and plasma membrane permeability, labeled HCT116 cells were successively incubated with Biotin-AnnexinV (BD Pharmingen) as recommended by manufacturer, […] BV786-Streptavidin (BD Biosciences) and 3 μM DRAQ7 (BioStatus) during 15 minutes at 25° C. After washing with PBS solution, samples were immediately analyzed using an imaging flow cytometer FlowSight® (Amnis®, part of EMD Millipore). Data were acquired at a 20× magnification, using INSPIRE software. The 405 nm, 488 nm, and 561 nm lasers were used for excitation. Brightfield, Annexin V-BV786, DRAQ7, CMFDA, CMTMR and Hoechst […] stainings were detected using respectively channels for 420-480 nm, 745-800 nm, 642-745 nm, 480-560 nm, 595-642 nm and 430-505 nm. At least 1000 events of cells per sample were analyzed. Additional single-labeled controls were prepared to normalize fluorescent signal across different channels. Acquired data were analyzed using the IDEAS analysis software (v6.1; Merck-Millipore). Gating strategy was the following. Cells were gated for focused cells using the Gradient RMS feature. Cells were gated for single cells using the aspect ratio and area features. For the cannibalism detection, cells were gated in the double positive CMFDA^+ and CMTMR^+ staining.
To detect PS exposure, plasma membrane permeability and cell cycle progression, cells were after co-culture sequentially labeled with specific fluorescent probes (such as FITC-conjugated AnnexinV, propidium iodide, and Hoechst 33342) and analyzed by flow cytometry. Both detached and adherent cells were collected and stained with Hoechst […] (10 μg/ml) during 1 hour at 37° C. in warmed complete medium. After washing with PBS, HCT116 cells were suspended in 1× binding buffer supplemented with fluorescein isothiocyanate (FITC)-conjugated Annexin V (BD Biosciences) and propidium iodide (PI, 1 μg/mL) (Sigma), as per manufacturer's instructions. […]

CT26 tumor cells = assay: Tumor growth in immunocompetent mice after intratumoral or intraperitoneal injection; assay type: in vivo, mouse; settings: Balb/c mice
Experimental: FIG. 7. Minaprine reduces tumor growth in immunocompetent mice after intratumoral or intraperitoneal injections. (A-C) 3 10^6 CT26 cells were implanted in immunocompetent BALB/c mice. Palpable tumors were injected with 10 μM Minaprine (or control) after 6 days. The tumor growth volume was then determined three times a week for the following 38 days (A and B). The percentage of mice survival was also determined (C). (D-I) 5 10^5 CT26 cells were implanted in immunocompetent BALB/c mice. After 12 days, tumor bearing mice were intraperitoneally injected with control (D and I), 0.3 mg/kg (E and I), 1 mg/kg (F and I), 3 mg/kg (G and I) or 10 mg/kg (H and I) of Minaprine. Tumor growth volumes (A-J) and fold change in the tumor volumes after intraperitoneal injection (D-I) were analyzed. Tumor growth volumes were the determined three times a week for the following 38 days.
For intratumoral injection, 3 10^6 Balb/c-derived CT26 tumor cells were subcutaneously implanted in 8 week-old Balb/c mice (Janvier Laboratories). After 6 days, 10 μM of Minaprine or control phosphate buffer saline (PBS) was injected into tumors (20 μl) and tumor volume was evaluated 3 times a week. For intraperitoneal injection, 5 10^5 Balb/c-derived CT26 tumor cells were subcutaneously implanted in 8 week-old Balb/c mice (Janvier Laboratories). After 12 days, tumor-bearing mice were intraperitonealy injected with different concentrations of Minaprine (0.3, 1, 3 and 10 mg/kg) or PBS. Tumor volume was also evaluated 3 times a week. The experiments were randomized, performed in compliance with the EU Directive 63/2010 and approved by Ethical Committee at Gustave Roussy Cancer Campus (CEEA IRCIV/IGR n^o26).
No statistical methods or criteria were used to estimate sample size or to include/exclude samples. The investigators were not blinded to group allocation during experiments and outcome assessment. Results are expressed as mean value SEM. To determine statistical significance, Two-way ANOVA (FIG. 7A) and Log rank (Mantel-Cox) (FIG. 7I) tests were used for calculation of P values. Prism 6 Software was used for the generation of survival graphs and statistical significance. Statistical significance was given as **p value<0.01 or *p value<0.05.
We first subcutaneously implanted 3 10^6 Balb/c-derived CT26 colon cancer cells in immunocompetent Balb/c mice. After 6 days, tumor-bearing mouse were randomized and 10 μM of Minaprine (3 mg/kg) was injected into tumors. Tumor growth was analyzed during 38 days.
We next determined whether intraperitoneal injections of Minaprine could also impact tumor growth. Thus, 5 10^5 Balb/c-derived CT26 cells were implanted into immunocompetent Balb/c mice. After 12 days, tumor-bearing mice were randomized, intraperitoneally injected with control (FIGS. 7D and 7I) or with Minaprine at different concentrations (FIGS. 7E-7I).

Cc1cc(-c2ccccc2)nnc1NCCN1CCOCC1.Cl.Cl [Minaprine dihydrochloride]
enhancement of IR-mediated cellular cannibalism (HCT116 cells): efficient cellular cannibalism enhancer
enhancement of IR-mediated cellular cannibalism (HCT116 cells; listed as Minaprine): significantly increased in presence of ionizing radiation
induction of cellular cannibalism (Type IV cell death) (HCT116 cells; cancer cells treated with compound, without IR): favors the induction of Type IV cell death modality
tumor growth (CT26 tumor cells; intraperitoneal injection 1 mg/kg 12 days after implant of 5 10^5 CT26 cells): significantly decreased the growth of treated tumors
tumor growth (CT26 tumor cells; intraperitoneal injection 3 mg/kg 12 days after implant of 5 10^5 CT26 cells): significantly decreased the growth of treated tumors
tumor growth (CT26 tumor cells; intraperitoneal injection 10 mg/kg 12 days after implant of 5 10^5 CT26 cells): significantly decreased the growth of treated tumors
tumor growth (CT26 tumor cells; intratumoral injection 3 mg/kg (10 μM) 6 days after implant of 3 10^6 CT26 cells, followed 38 days): significantly decreases the growth of tumors
survival of treated mice (CT26 tumor cells; intratumoral injection 3 mg/kg, CT26 tumors, versus untreated control): increase survival
